Source: patent US20220273624A1, “NOVEL ANTIVIRAL THERAPIES” (NIKLOVIR AB, priority 2019, published 2022)
Where two headings read alike, the source gives them in different places.

What was measured:
Ljungan-like virus = assay: Immunohistochemistry for LV VP1 antigen in pancreas tissue of treated DP-BB rats (Example 1); assay type: in vivo, rat; conditions: for Non-infected (number of animals, viral antigen in pancreas by IHC) / Infected (number of animals, viral antigen in pancreas by IHC): Pleconaril 100 mg/kg, Efavirenz 30 mg/kg daily from 45 to 60 days of age; for Non-infected (number of animals, viral antigen in pancreas by IHC): control 0 of 9 non-infected; for Infected (number of animals, viral antigen in pancreas by IHC): control 9 of 9 infected; for effect on clearing the infection (in words): pancreas tissue following treatment
Protocol: DP-BB rats were obtained from the breeding colony maintained at the Karolinska Institute (Solna, Sweden). The animals were housed under Specific Pathogen Free conditions in a temperature- and humidity-controlled room with 12 hour light dark cycles. They were fed R36 diet and water ad libitum. Animals of both genders were used. The overall incidence of diabetes among the DP rats used in the colony study is 100% with 60 days as the mean age of onset.
Antiviral agents (pleconaril and efavirenz) were administered to the animals in a dose of 100 mg/kg and 30 mg/kg body weight for Pleconaril and Efavirenz, respectively. Treatment was given daily using formulation containing the vehicle 0.4% (v/v) Tween 80+2% (v/v) glycerol+15% (w/v) Hydroxypropyl-beta-cyclodextrin.
Four experimental treatment groups consisted of six rats given pleconaril, six given Efavirenz, eight given a combination of both compounds, and nine given the vehicle solution and serving as a control. All four groups began treatment at 45 days of age and treatment was maintained until 60 days of age when animals were sacrificed.
Formalin fixed paraffin embedded pancreas tissue were analyzed by immunohistochemistry. The tissues were fixed in 4% formalin and embedded in paraffin as described previously with minor modifications (Shi et al., 1991), (Shi, 1997). Presence of LV specific antigen was visualized using a polyclonal recombinant LV VP1 raised in rabbits (Tolf, 2008). As control we used serum from a rabbit immunized using the same protocol but with the carrier GST protein only. Tissues from LV-infected and non-infected animals were included as controls. The specificity of the rabbit antibodies were verified by analyzing control specimens generated by mixing infected tissue culture cells with non-infected cells followed by formalin fixation and paraffin imbedding. The specificity of the reaction was also confirmed by blocking the signal with LV antigen in parallel with control antigen.
Pancreas tissue was also analysed using the PCR assay described by Donoso Mantke and co-workers (Donoso Mantke et al., 2007).

DP BB rats = conditions: group B, Pleconaril alone 100 mg/kg BW once daily for 30 days, previously reported (Niklasson et al., 2016), control 59 (7), cited from earlier work

Compound	Non-infected (number of animals, viral antigen in pancreas by IHC) (Ljungan-like virus)	Infected (number of animals, viral antigen in pancreas by IHC) (Ljungan-like virus)	effect on clearing the infection (in words) (Ljungan-like virus)	Mean diab onset day (SD) (DP BB rats; listed as Plec)	Mean diab onset day (SD) (DP BB rats)
O=C1Nc2ccc(Cl)cc2[C@@](C#CC2CC2)(C(F)(F)F)O1 [Efavirenz, (4S)-6-chloro-4-(2-cyclopropylethynyl)-4-(trifluoromethyl)-1H-3,1-benz-oxazin-2-one]	0	6	essentially no effect	–	–
Cc1cc(CCCOc2c(C)cc(-c3noc(C(F)(F)F)n3)cc2C)on1 [Pleconaril, 3-[3,5-dimethyl-4-[3-(3-methylisoxazol-5-yl)propoxy]phenyl]-5-(trifluoro-methyl)-1,2,4-oxadiazole]	2	4	only a modest effect on clearing the infection	62 (8) day	62 (SD 8) day
